Values quoted from earlier work in patent US20070213409A1, “USE OF PREPARATIONS FOR SKIN ENZYME PROTECTION” (BEIERSDORF AG, priority 2005, published 2007).
Counter-ions that a name gives are not always drawn.

Key:
[1] = tested on: desquamation (SCCE and SCTE serine proteases)
[2] = tested on: stratum corneum chymotryptic enzyme (SCCE); conditions: competitive inhibition; associated with reduced desquamation
[3] = tested on: stratum corneum tryptic enzyme (SCTE); conditions: competitive inhibition; associated with reduced desquamation

Row | Compound | skin flakes in vivo after topical application [1] | effect on activity of SCCE [2] | effect on activity of SCTE [3]
1 | aprotinin | more skin flakes | – | –
2 | CC(C)CCC[C@@H](C)[C@H]1CC[C@H]2[C@@H]3CC=C4C[C@@H](OS(=O)(=O)O)CC[C@]4(C)[C@H]3CC[C@]12C [cholesterol-3 sulfate] | – | reduces | reduces
3 | CC(=O)N[C@@H](CC(C)C)C(=O)N[C@@H](CC(C)C)C(=O)N[C@H](C=O)CCCNC(=N)N [leupeptin] | more skin flakes | – | –
